As a reminder, the IC50 is the midpoint of a concentration-inhibition curve. Low readings indicate inhibition by little substance, high ones a need for much substance.

From paper PMC8809408 (Frontiers in Pharmacology, 2022) come the findings set out here.

Counter-ions that a name gives are not always drawn. Like-named read-outs stand apart in the source and are kept apart here.

Experiment [1] relates to pseudotyped lentiviruses harboring S-protein of SARS-CoV-2. Kind of experiment: microbe, parasite or virus in culture. It counts as cell-based.
Experiment [2] has as its system pseudotyped viruses carrying E484K mutation in S protein. Type of experiment: cell-based, SARS-CoV-2.
Experiment [3] deals with pseudotyped viruses, triple mutant (N501Y/K417N/E484K) S protein. Type of experiment: cell-based, SARS-CoV-2.
Experiment [4] concerns pseudotyped viruses carrying N501Y mutation in S protein. Type of experiment: cell-based, SARS-CoV-2.
Experiment [5] deals with pseudotyped viruses carrying K417N mutation in S protein. Type of experiment: cell-based, SARS-CoV-2.
The mark [6] stands for this setting: Severe acute respiratory syndrome coronavirus 2, 24 h.

Regarding `N[C@@]1(c2ccccc2Cl)CCC[C@@H](O)C1=O` [2R,6R-HNK, 2R, 6R-Hydroxynorketamine], the “luciferase reporter activity (viral infection)” value in experiment [1] was “neither ketamine nor the metabolites were effective”.
Consider `N[C@]1(c2ccccc2Cl)CCC[C@H](O)C1=O` [2S,6S-HNK, 2S, 6S-Hydroxynorketamine], for which, in experiment [1], the “luciferase reporter activity (viral infection)” value is “neither ketamine nor the metabolites were effective”.
As for `CN(C)C(=O)COC(=O)Cc1ccc(OC(=O)c2ccc(NC(=N)N)cc2)cc1` [Camostat mesylate], the “luciferase reporter activity (viral infection)” value in experiment [1] is reported as “significantly reduced”.
Consider `NC(=O)N1c2ccccc2C=Cc2ccccc21` [Carbamazepine], for which, in experiment [1], the “luciferase reporter activity (viral infection)” value was “failed to change the viral infection”.
Regarding `CN(C)CCCN1c2ccccc2Sc2ccc(Cl)cc21` [Chlorpromazine], the IC50 in experiment [1] is 0.972 µM; in experiment [1] (setting [6]) it was 0.973 µM. Besides, the “luciferase reporter activity (viral infection)” value in experiment [1] is listed as “Decline of luciferase reporter activity”. Also, the “effectiveness against SARS-CoV-2 spike pseudotyped viruses compared with VSV-G pseudotyped viruses (luciferase activity)” value in experiment [1] (24 h) was “more effective”.
For `CN(C)CCCC1(c2ccc(F)cc2)OCc2cc(C#N)ccc21` (centres unmarked) [Citalopram], in experiment [1], the “luciferase reporter activity (viral infection)” value is “significantly reduced luciferase reporter activity” and the “selectivity index (SI)” value was determined as 9.97. In addition, the “effectiveness against SARS-CoV-2 spike pseudotyped viruses compared with VSV-G pseudotyped viruses (luciferase activity)” value in experiment [1] (24 h) was “more effective”. The same compound returned an IC50 in experiment [1] (setting [6]) of 27.5 µM.
Turning to `CN(C)CCCN1c2ccccc2CCc2ccc(Cl)cc21` [Clomipramine], in experiment [1], the “effectiveness against SARS-CoV-2 spike pseudotyped viruses compared with VSV-G pseudotyped viruses (luciferase activity)” value was “more effective” and the “luciferase reporter activity (viral infection)” value is “significantly reduced luciferase reporter activity”.
On to `CNCCCN1c2ccccc2CCc2ccccc21` [Desipramine], for which, in experiment [1], the “luciferase reporter activity (viral infection)” value is given as “significantly reduced luciferase reporter activity”. For the same compound, the “effectiveness against SARS-CoV-2 spike pseudotyped viruses compared with VSV-G pseudotyped viruses (luciferase activity)” value in experiment [1] (24 h) was “more effective”. In experiment [1] (setting [6]), the IC50 came to 8.1 µM.
Take `CNCCC(Oc1ccc(C(F)(F)F)cc1)c1ccccc1` (centres unmarked) [Fluoxetine]: the “luciferase reporter activity, E484K pseudovirus” value in experiment [2] is listed as “significantly reduced the luciferase reporter activity”. Further, the “luciferase reporter activity, triple mutant (N501Y/K417N/E484K) pseudovirus” value in experiment [3] is “significantly reduced the luciferase reporter activity”. Further, in experiment [1], the “effectiveness against SARS-CoV-2 spike pseudotyped viruses compared with VSV-G pseudotyped viruses (luciferase activity)” value is given as “more effective”; the “luciferase reporter activity (viral infection)” value is on record as “significantly reduced luciferase reporter activity”; the “luciferase reporter activity, WT spike pseudovirus” value was “significantly reduced the luciferase reporter activity”. For the same compound, in experiment [4], the “luciferase reporter activity, N501Y pseudovirus” value is listed as “significantly reduced the luciferase reporter activity”. Also, the “luciferase reporter activity, K417N pseudovirus” value in experiment [5] is recorded as “significantly reduced the luciferase reporter activity”.
With `OCCN1CCN(CCC=C2c3ccccc3Sc3ccc(C(F)(F)F)cc32)CC1` [Flupenthixol], in experiment [1], the “luciferase reporter activity (viral infection)” value is “Decline of luciferase reporter activity” and the “selectivity index (SI)” value is listed as 18.11. For the same compound, the “effectiveness against SARS-CoV-2 spike pseudotyped viruses compared with VSV-G pseudotyped viruses (luciferase activity)” value in experiment [1] (24 h) is recorded as “more effective”. Also, the IC50 in experiment [1] (setting [6]) amounted to 1.07 µM.
Turning to `CN(C)CCCN1c2ccccc2CCc2ccccc21` [Imipramine], in experiment [1], the IC50 stood at 3 µM, the “luciferase reporter activity (viral infection)” value was “significantly reduced luciferase reporter activity” and the “selectivity index (SI)” value was determined as 22.83. In experiment [1] (setting [6]), this compound had an IC50 of 3.01 µM.
On to `CNC1(c2ccccc2Cl)CCCCC1=O` (centres unmarked) [Ketamine], for which, in experiment [1], the “luciferase reporter activity (viral infection)” value was “neither ketamine nor the metabolites were effective”.
For `Fc1ccc([C@@H]2CCNC[C@H]2COc2ccc3c(c2)OCO3)cc1` [Paroxetine], in experiment [1], the “luciferase reporter activity (viral infection)” value is reported as “significantly reduced luciferase reporter activity” and the “selectivity index (SI)” value amounted to 1.76. The “effectiveness against SARS-CoV-2 spike pseudotyped viruses compared with VSV-G pseudotyped viruses (luciferase activity)” value in experiment [1] (24 h) is “more effective”. The compound also displayed an IC50 in experiment [1] (setting [6]) of 12.6 µM.
With `NNCCc1ccccc1` [Phenelzine], in experiment [1], the “luciferase reporter activity (viral infection)” value is listed as “failed to prevent the viral entry”.
In the case of `O=c1[nH]c2ccccc2n1C1CCN(CCCC(c2ccc(F)cc2)c2ccc(F)cc2)CC1` [Pimozide], the “luciferase reporter activity (viral infection)” value in experiment [1] was “Decline of luciferase reporter activity”. Also, the “effectiveness against SARS-CoV-2 spike pseudotyped viruses compared with VSV-G pseudotyped viruses (luciferase activity)” value in experiment [1] (24 h) is on record as “more effective”. The IC50 in experiment [1] (setting [6]) was 4.54 µM.
The matching figures for `CCOc1ccccc1OC(c1ccccc1)C1CNCCO1` (centres unmarked) [Reboxetine]: “significantly reduced luciferase reporter activity”, “more effective” and 17.7 µM.
With `COc1ccc(C2CNC(=O)C2)cc1OC1CCCC1` (centres unmarked) [Rolipram], the “luciferase reporter activity (viral infection)” value in experiment [1] is given as “failed to prevent the viral entry”.
As to `COc1ccc(C(CN(C)C)C2(O)CCCCC2)cc1` (centres unmarked) [Venlafaxine], in experiment [1], the “luciferase reporter activity (viral infection)” value was “significantly reduced luciferase reporter activity”. The compound further displayed an IC50 in experiment [1] (setting [6]) of 36.4 µM.
